Test results taken from US6603023B2 (priority 1996, dated 2003).
Like-named read-outs stand apart in the source and are kept apart here. Marks after values point to notes of the source that are not given here.

How the values were obtained:
murine leukemic P388/0 = experiment: XTT cytotoxicity, P388/0; format: cell-based; settings: Table 1C; XTT, 72 h; read-out: IC50
In short: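 Growth was read by XTT/PMS reduction over 4 h at 37 °C after 72 h of compound treatment, with absorbance at 450 nm and 630 nm. CCRF-CEM, P388 and their resistant sublines, grown continuously with their selecting drugs, were cultured in duplicate at 5×10^4 cells/mL. The medium was RPMI-1640 with 10% FBS.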

MCF-7/Adr = experiment: cells; format: cell-based, human
In short: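 Sulforhodamine B readout: TCA-fixed cultures stained 30 min with 0.4% SRB, bound dye extracted in unbuffered Tris and read at 570 nm. Duplicate experiments, six to seven drug concentrations per run.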

[1] = test system: human mammary carcinoma MX-1 xenograft
Experimental: DMSO was used as a vehicle for epothilones. Each mouse received ≦40 μL DMSO in all experiments.
Athymic nude mice (nu/nu) were used for MX-1 and MCF-7/Adr human mammary carcinoma xenografts. Mice were obtained from Taconic Laboratory Animals and Service (Germantown, N.Y.: outbred, Swiss background).

[2] = 15 mg/kg i.p. Q2Dx5 from day 7, day 11
[3] = 15 mg/kg i.p. Q2Dx5 from day 7, day 13
[4] = 15 mg/kg i.p. Q2Dx5 from day 7, day 15
[5] = 15 mg/kg i.p. Q2Dx5 from day 7, day 17
[6] = 25 mg/kg i.p. Q2Dx5 from day 7, day 11
[7] = 25 mg/kg i.p. Q2Dx5 from day 7, day 13
[8] = 25 mg/kg i.p. Q2Dx5 from day 7, day 15
[9] = 25 mg/kg i.p. Q2Dx5 from day 7, day 17
[10] = 35 mg/kg i.p. Q2Dx5 from day 9, day 13
[11] = 35 mg/kg i.p. Q2Dx5 from day 9, day 15
[12] = 35 mg/kg i.p. Q2Dx5 from day 9, day 17
[13] = 35 mg/kg i.p. Q2Dx5 from day 9, day 19
[14] = 35 mg/kg i.p. d8,10,12,14,16, day 10
[15] = 35 mg/kg i.p. d8,10,12,14,16, day 12
[16] = 35 mg/kg i.p. d8,10,12,14,16, day 14
[17] = 35 mg/kg i.p. d8,10,12,14,16, day 16
[18] = 35 mg/kg i.p. d8,10,12,14,16, day 18
[19] = 40 mg/kg i.p. d18-26, extended after d8-16, day 20
[20] = 40 mg/kg i.p. d18-26, extended after d8-16, day 22
[21] = 40 mg/kg i.p. d18-26, extended after d8-16, day 24
[22] = 40 mg/kg i.p. d18-26, extended after d8-16, day 26
[23] = 40 mg/kg i.p. d18-26, extended after d8-16, day 28
[24] = dEpo B 15 mg/kg i.v. Q2Dx5 from day 9
[25] = dEpo B 15 mg/kg i.v. Q2Dx5 from day 9, day 13

With `C/C1=C/C[C@@H](/C(C)=C/c2csc(C)n2)OC(=O)C[C@H](O)C(C)(C)C(=O)[C@H](C)[C@@H](O)[C@@H](C)CCC1` [Desoxyepothilone B, desoxyepothilone B] the IC50 (murine leukemic P388/0) was 6.8 nM, the “fold resistance vs parent MCF-7” value (MCF-7/Adr; MCF-7/Adr cells, listed as dEpoB) was 2.4 fold and the “folds of resistance (IC50 ratio vs parent cell line)” value (MCF-7/Adr; Table 1C, MCF-7/Adr vs MCF-7) was “(2.4x)”. The IC50 (MCF-7/Adr; Table 1C, SRB, 72 h, read-out: IC50) was 7.1 nM, the “Toxicity Death” value ([1]; 15 mg/kg i.p. Q2Dx5 from day 7) was 0/6 and the “Average Body Weight Change” value [1, 2] was “+0.8 g”. For the same compound, the “Average Tumor Size (T/C)” value [1, 2] was 0.65, the “Average Body Weight Change” value [1, 3] was “+1.1 g” and the “Average Tumor Size (T/C)” value [1, 3] was 0.46. For the same compound, the “Average Body Weight Change” value [1, 4] was “+1.6 g”, the “Average Tumor Size (T/C)” value [1, 4] was 0.49** and the “Average Body Weight Change” value [1, 5] was “+1.5 g”. The “Average Tumor Size (T/C)” value [1, 5] was 0.41**, the “Toxicity Death” value ([1]; 25 mg/kg i.p. Q2Dx5 from day 7) was 0/6 and the “Average Body Weight Change” value [1, 6] was “+0.4 g”. For the same compound, the “Average Tumor Size (T/C)” value [1, 6] was 0.38*, the “Average Body Weight Change” value [1, 7] was “+0.7 g” and the “Average Tumor Size (T/C)” value [1, 7] was 0.11**. The “Average Body Weight Change” value [1, 8] was “+1.0 g”, the “Average Tumor Size (T/C)” value [1, 8] was 0.05*** and the “Average Body Weight Change” value [1, 9] was “+0.7 g”. The “Average Tumor Size (T/C)” value [1, 9] was 0.04****, the “mice tumor-free (no detectable tumor) on day 35” value ([1]; 25 mg/kg i.p. days 7-15) was “one out of six” and the “average tumor volume reduction” value ([1]; 25 mg/kg i.p. days 7-15, day 17) was at most 96%. For the same compound, the “mice tumor-free (no detectable tumor) on day 35” value ([1]; 25 mg/kg i.p. days 7-15, listed as dEpo B) was “#One out of six mice with no detectable tumor on day 35;”, the “mice with no detectable tumor on day 16” value ([1]; 35 mg/kg Q2Dx5 i.p. from day 8) was “two out of ten” and the “mice with no detectable tumor on day 26” value ([1]; 35 mg/kg d8-16 then 40 mg/kg Q2Dx5 from day 18) was “five out of ten”. The “mice remaining tumor-free on day 60” value ([1]; 35 mg/kg d8-16 then 40 mg/kg Q2Dx5 from day 18, of ten) was “three”, the “mice tumor-free up to day 80” value ([1]; 35 mg/kg d8-16 then 40 mg/kg d18-26 i.p.) was 3/10 and the “mice with markedly suppressed tumors” value ([1]; 35 mg/kg d8-16 then 40 mg/kg d18-26 i.p., sacrificed day 50) was 7/10. The lethality ([1]; 35 mg/kg i.p. Q2Dx5 from day 8) was 0/10, the mice survived ([1]; 35 mg/kg i.p. Q2Dx5 from day 8) was 10/10 and the “mice with tumor non-detectable on day 18” value ([1]; 35 mg/kg i.p. Q2Dx5 from day 8) was 3 out of 10. The tumor volume reduction ([1]; 35 mg/kg i.p. Q2Dx5 from day 8) was 98%, the “Toxicity Death” value ([1]; 35 mg/kg i.p. Q2Dx5 from day 9) was 0/6 and the “Tumor Disapp.” value ([1]; 35 mg/kg i.p. Q2Dx5 from day 9) was 3/6. The “Average Body Weight Change” value [1, 10] was -1.7 g, the “Average Tumor Size (T/C)” value [1, 10] was 0.35 and the “Average Body Weight Change” value [1, 11] was -2.1 g. The “Average Tumor Size (T/C)” value [1, 11] was 0.14, the “Average Body Weight Change” value [1, 12] was -2.1 g and the “Average Tumor Size (T/C)” value [1, 12] was 0.04. The “Average Body Weight Change” value [1, 13] was -2.4 g, the “Average Tumor Size (T/C)” value [1, 13] was 0.02 and the “# Mice Died” value ([1]; 35 mg/kg i.p. d8,10,12,14,16) was 3/10. For the same compound, the “Tumor Disappearance” value ([1]; 35 mg/kg i.p. d8,10,12,14,16) was 0/10, the “Average Body Weight Change” value [1, 14] was -0.1 g and the “Average Tumor Volume (T/C)” value [1, 14] was 0.42. For the same compound, the “Average Body Weight Change” value [1, 15] was “+0.7 g”, the “Average Tumor Volume (T/C)” value [1, 15] was 0.28 and the “Average Body Weight Change” value [1, 16] was -0.3 g. The “Average Tumor Volume (T/C)” value [1, 16] was 0.07, the “Average Body Weight Change” value [1, 17] was -1.7 g and the “Average Tumor Volume (T/C)” value [1, 17] was 0.04. For the same compound, the “Average Body Weight Change” value [1, 18] was -1.6 g, the “Average Tumor Volume (T/C)” value [1, 18] was 0.02 and the “# Died” value ([1]; 40 mg/kg i.p. d18-26, extended after d8-16) was 0/10. For the same compound, the “Average Tumor Disappearance Duration (Day)” value ([1]; 40 mg/kg i.p. d18-26, extended after d8-16, (5/10)) was 44(5/10) Day, the “Average Body Weight Change” value [1, 19] was -1.7 g and the “Tumor Disappearance” value [1, 19] was 2/10^b. For the same compound, the “Average Body Weight Change” value [1, 20] was -2.4 g, the “Tumor Disappearance” value [1, 20] was 2/10 and the “Average Body Weight Change” value [1, 21] was -2.4 g. For the same compound, the “Tumor Disappearance” value [1, 21] was 3/10, the “Average Body Weight Change” value [1, 22] was -1.4 g and the “Tumor Disappearance” value [1, 22] was 5/10. The “Average Body Weight Change” value [1, 23] was -1.2 g, the “Tumor Disappearance” value [1, 23] was 5/10 and the “lethality and body weight” value ([1]; 15 and 25 mg/kg i.p. days 7-15) was “no lethality nor body weight reduction”. The therapeutic outcome ([1]; 25-40 mg/kg, Q2Dx5, i.p.) was “marked tumor regression and cures”, the therapeutic outcome ([1]; 6 hr i.v. infusion) was “full cure” and the “Toxicity Death” value [1, 24] was 4/6^b. For the same compound, the “Tumor Disapp.” value [1, 24] was 0/6, the “Average Body Weight Change” value [1, 25] was 0 g and the “Average Tumor Size (T/C)” value [1, 25] was 0.47. The “Average Body Weight Change” value ([1]; dEpo B 15 mg/kg i.v. Q2Dx5 from day 9, day 15) was -0.6 g.
